# Results published in PMC7219108, “Pisum sativum Defensin 1 Eradicates Mouse Metastatic Lung Nodules from B16F10 Melanoma Cells” (International Journal of Molecular Sciences, 2020).
# Key:
# C57BL/6 mice = test: Toxicity observation in mice given Psd1 alone; format: in vivo
# Protocol: Another group of animals received 1 mg/kg of Psd1 only (n = 9) to evaluate Psd1 toxicity. Twenty-one days later, the animals were anaesthetized and sacrificed, and the black lung melanoma nodules were counted and measured under a dissecting microscope (Zeiss AxioPhot fluorescence microscope (Carl-Zeiss, Oberkochen, Germany)).
# B16F10 cells [1] = test: SYTOXGreen uptake (membrane permeabilization), B16F10 cells; format: cell-based, murine
# Protocol: (§1) Figure 2 Psd1 promotes B16F10 live cell membrane permeabilization as monitored by SYTOX Green fluorescence. (A) Psd1 untreated and hydrogen peroxide-treated B16F10 cells. (B) A total of 1.5 × 10^4 B16F10 cells were incubated with 3 or 50 µM Psd1 for 30 min. (C) 1.5 × 10^4 B16F10 cells were incubated with 50 µM Psd1 for 1 h. All experiments were performed at 37 °C. Nucleus staining is shown in green (SYTOXGreen), and mitochondria are shown in red (MitoTracker Red CMXRos). Images are shown at 20× magnification. […] (E) Psd1 induces apoptosis in B16F10 cells. B16F10 cells were treated with 50 µM Psd1 for 24 h and labeled with propidium iodide, and the DNA content was analyzed by flow cytometry for the sub-G0/G1 profile. At least two independent experiments were performed. TEXT PRINTED IN THE PICTURE: (E) Control: Sub-G1: 4.4% | (E) Psd1: Sub-G1: 60.6% (50μM)
# Images were obtained in the X, Y, and Z planes of the image, giving the image a 3-dimensional depth (Z-stack) at 100× magnification with a Zeiss Cell Observer Yokogawa Spinning Disk confocal microscope (Cell Observed SD, Carl-Zeiss, Oberkochen, Germany) located in the Microscopia Óptica de Luz Gustavo de Oliveira Castro (Plamol) platform in Universidade Federal do Rio de Janeiro. To measure the mean fluorescence intensity (MFI), Zen Lite Blue (Carl-Zeiss, Oberkochen, Germany) software was used. On average, thirty cells per field were analyzed in fourteen fields by experiments. Then, the region of interest (ROI), specifically the nucleus and mitochondria, was tagged on the cells photographed for fluorescence analysis, which is given by the software from the intensity of the pixels. Subsequently, the statistical test was performed using GraphPad Prism version 7.4, and the values presented are averages with the corresponding standard deviations (SDs).
# B16F10 cells were trypsinized and counted, and 1.5 × 10^4 cells/well in DMEM containing 0.1% (w/v) bovine serum albumin BSA were plated in a cell-view glass bottom culture dish with four compartments (Thermo Fisher Scientific Inc, Maryland, USA) and then incubated at 37 °C overnight to adhere. Post-treatment, the cells were treated with 3 or 50 µM Psd1 for 30 or 60 min and maintained at the same temperature. Cells treated with only water or 0.0001% H2O2 for 30 min were used as the negative and positive controls, respectively. Washes with saline were carried out between the additions of each probe followed by incubation at room temperature. The cells were incubated with 1 µL of SG, 1.5 µL of MitoTracker Red CMXRos, and 2 µL of DAPI for 10, 20, and 10 min, respectively. The fluorescent images were acquired by confocal microscopy.
# B16F10 cells [2] = test: Mitochondrial staining (MitoTracker Red CMXRos), B16F10 cells; format: cell-based, murine; settings: 50 µM
# Protocol: as §1, with “At least two independent experiments were performed. TEXT PRINTED IN THE PICTURE: (E) Control: Sub-G1: 4.4% | (E) Psd1: Sub-G1: 60.6% (50μM)” left out
# Figure 3 Fluorescein isothiocyanate (FITC)-Psd1 was localized in the B16F10 live cell nucleus. […] (C) The mean fluorescence intensity (MIF) of MitoTracker and FITC-Psd1 labeled cells measured over time. […]
# Images were obtained in the X, Y, and Z planes of the image, giving the image a 3-dimensional depth (Z-stack) at 100× magnification with a Zeiss Cell Observer Yokogawa Spinning Disk confocal microscope (Cell Observed SD, Carl-Zeiss, Oberkochen, Germany) located in the Microscopia Óptica de Luz Gustavo de Oliveira Castro (Plamol) platform in Universidade Federal do Rio de Janeiro. […] On average, thirty cells per field were analyzed in fourteen fields by experiments. […]
# [3] = test system: B16F10 (murine skin melanoma) cells; test: MTT cell viability, B16F10 tumor cells; format: cell-based; settings: 24 h, two independent experiments in triplicate, p < 0.001 vs untreated
substance,measurement,setting,value
"Psd1: 46-amino acid residue plant defensin isolated from pea seeds, expressed in Pichia pastoris (PDB 1JKZ) (KTCEHLADTYRGVCFTNASCDDHCKNKAHLISGTCHNWKCFCTQNC)","Inflammation in lung tissue, weight or vital signal losses","C57BL/6 mice; 1 mg/kg Psd1 alone, over 21 days",did not provoke inflammation in lung tissue or weight or vital signal losses over 21 days
same,Behavior signals / mortality,"C57BL/6 mice; Psd1 alone (1 mg/kg i.v.), vs PBS","did not present changes in important behavior signals, such as changes in locomotion, piloerection, diarrhea, or mortality"
same,"SYTOXGreen entrance, nuclear staining","B16F10 cells [1]; 3 µM and 50 µM, 30 min, 37 °C",intense green nuclear staining
same,Cell adhesion / shape,"B16F10 cells [1]; 50 µM, 1 h","started to lose their adhesion capacity, assuming a less spread shape"
same,SYTOXGreen fluorescence signal,"B16F10 cells [1]; 50 µM, 1 h, 37 °C, p < 0.0001 vs 3 and 50 µM for 30 min",increased significantly
same,Mitochondria red marker (MitoTracker),B16F10 cells [2]; 30 min,lower mitochondria red marker
same,Mitochondria red fluorescence (MitoTracker),"B16F10 cells [2]; 1 h, probably superposition of SYTOXGreen and MitoTracker signals",brighter red fluorescence signal
same,Reduction of B16F10 cell viability (MTT),[3]; 25 µM,approximately 50%
same,Reduction of B16F10 cell viability (MTT),[3]; 50 µM,~60%
